From US6491948B1, “Composition comprising isoquercetin and ascorbic acid in a sustained release form” (Merck Patent GmbH, priority 1999, dated 2002)

Columns and labels:
[1] = in vivo; cited from earlier work
[2] = in vivo; cited from earlier work; remark: listed apart in the source
[3] = man; cited from earlier work
[4] = passage of the blood-brain barrier / entry into the brain; type: in vivo; settings: isoquercetin given one hour before ascorbate
From the text: The second form of ascorbic acid, semidehydroascorbic acid (ascorbate free radical) participates in univalent redox systems that is in the antioxidant defense activity. See Bors, W. et al. (1995), Interaction of Flavonoids with Ascorbate and Determination of their Univalent Redox Potentials: a Pulse Radiolysis Study, Free Radical Biology and Medicine, vol. 19, No. 1, 45-52. This means semidehydroascorbic acid participates most likely in free radical scavenging activities. According to the article Gordon, M. H. (1996), Dietary Antioxidants in Disease Prevention, Natural Product Reports, pp. 265-273, “ascorbate appears to be the most important non-protein antioxidant in plasma” p. 270. […] See Agus, D. B. et al. (1997), Vitamin C crosses the blood-brain barrier in the oxidized form through the glucose transporters, J. Clin. Invest., 100 (11) 2842-2848. After entering the brain dehydroascorbic acid is reduced and retained as ascorbic acid.

[5] = pharmacokinetic studies: absorption and bioavailability; parameters: species or system man; settings: in vivo
From the text: Absorbed isoquercetin interacts with ascorbate keeping it in the reduced state and, at the same time, is being protected by ascorbate by being kept in the oxidized state (Yamasaki, H. et al. (1997), Flavanoid-peroxidase reaction as a detoxification mechanism of plant cells against H2O2).

| SMILES | concentration in brain relative to blood serum [1] | crossing of the blood-brain barrier [2] | absorption compared with rutin and quercetin [3] | entry into the brain and reduction of dehydroascorbate [4] | absorption rate and bioavailability [5] |
| --- | --- | --- | --- | --- | --- |
| O=C1O[C@H]([C@@H](O)CO)C(O)=C1O [Ascorbic acid, ascorbic acid] | 10 times | not able to cross blood-brain barrier | – | – | – |
| O=C1O[C@H]([C@@H](O)CO)C(=O)C1=O [dehydroascorbic acid] | – | readily enters the brain | – | – | – |
| O=c1c(O[C@@H]2O[C@H](CO)[C@@H](O)[C@H](O)[C@H]2O)c(-c2ccc(O)c(O)c2)oc2cc(O)cc(O)c12 [isoquercetin, quercetin-3-O-glucoside] | – | – | absorbed better than rutin and quercetin | enters the brain and reduces dehydroascorbate | excellent absorption rate and bioavailability |
